Experiments:
[1] = test system: cholesterol level in the serum; assay: effect of reducing a lipid level in blood (serum cholesterol) in hamsters fed diet containing 1% cholesterol and 0.5% cholic acid; type: in vivo, golden hamster (male); details: percent inhibition of serum cholesterol relative to control, 1 mg/10 ml water/kg orally once a day, blood taken on fifth day 3 h after final administration; for inhibition in vivo at 1 mg/kg: Mesocricetus auratus, po, once a day, read-out: Reduction of Cholesterol in Blood
Method: The effect of reducing a lipid level in blood by the action of the compounds according to the present invention was determined as follows:
Male golden hamsters weighing from 80 to 100 g were randomly divided into groups. The hamsters were first fed standard laboratory diets (solid feed MF-1 for mouse/rat/hamster, manufactured by Oriental yeast Industries, KK) for 3 days. Then, they were fed the experimental diet containing 1% cholesterol and 0.5% cholic acid ad libitum. At the same time, the compounds of the invention formulated in a shown dose (1 mg/10 ml water/kg) were administrated to the hamsters orally once a day at a determined time. Water was administrated orally to the hamsters of control group in an amount of 10 ml per 1 kg of body weight. On fifth day of administrating the compounds, the hamsters were anesthetized with nembutal (Nembutal injection, manufactured by Dainabbot) three hours after the final administration of the test compound, and a blood sample was taken from abdominal cava. The serum was separated from the sample by centrifuging.
The cholesterol level in the serum was determined by using a blood cholesterol measuring kit, Determina-TC5 manufactured by Kyowa Medix Co. The results are represented by percent inhibition (%) of cholesterol level in serum relative to that of the control group, and shown in the following Table 20.

ACAT = target: T1, ACAT (Mesocricetus auratus, UniProt A0A1U8BU94); assay: ACAT inhibitory action (cholesteryl oleate formation from radio-labelled oleoyl coenzyme A, liver microsome); type: biochemical; details: hamster liver microsome; inhibition of cholesteryl oleate formation
T1 construct: each tissue specimen containing hamster liver microsome; from tissue; host or cells: hamster liver microsomes
T1 sequence (A0A1U8BU94 1-521): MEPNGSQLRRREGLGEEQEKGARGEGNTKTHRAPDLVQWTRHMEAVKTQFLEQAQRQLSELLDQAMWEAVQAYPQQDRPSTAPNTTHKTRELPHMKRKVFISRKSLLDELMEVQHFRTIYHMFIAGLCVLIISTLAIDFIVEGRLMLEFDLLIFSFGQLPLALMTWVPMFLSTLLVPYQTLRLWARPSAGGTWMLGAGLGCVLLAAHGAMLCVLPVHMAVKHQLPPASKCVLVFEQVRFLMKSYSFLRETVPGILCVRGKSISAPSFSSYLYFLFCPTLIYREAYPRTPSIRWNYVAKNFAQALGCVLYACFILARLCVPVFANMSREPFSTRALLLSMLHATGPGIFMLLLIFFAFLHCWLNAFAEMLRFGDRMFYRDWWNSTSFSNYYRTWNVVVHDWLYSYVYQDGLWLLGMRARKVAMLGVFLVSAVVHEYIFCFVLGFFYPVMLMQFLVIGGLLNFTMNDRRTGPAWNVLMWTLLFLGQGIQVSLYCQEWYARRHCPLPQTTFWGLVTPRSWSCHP
Method: The ACAT inhibitory action of the compounds of this invention was determined by the following method.
ACAT activity was determined by measuring the amount of ratio-active cholesteryl oleate formed from radio-labelled oleoyl coenzyme A in each tissue specimen containing hamster liver microsome. The reduction rates (%) in the amount of formation of cholesteryl oleate by the administration of the test compound in various concentrations (μM) as compared with as compared with the amount of formation in the control group to which no test compound was administrated were measured. The ACAT inhibitory action was evaluated by IC50, the concentration of the test compound necessary for inhibiting the activity of the enzyme by 50%, obtained from the reduction rates.

[2] = test system: cholesterol level in the serum; assay: effect of reducing a lipid level in blood (serum cholesterol) in hamsters fed diet containing 1% cholesterol and 0.5% cholic acid; type: in vivo, golden hamster (male); details: Mesocricetus auratus, po, 120 h, comparison compound; dose of 5 mg/kg p.o.; read-out: Reduction of Cholesterol in Blood

CCCCC(CNC(=O)Nc1c(C(C)C)cccc1C(C)C)c1cccc2c1CCCC2 (stereo not shown) [Example 55, 1-(2-(2,3-tetramethylenephenyl)hexyl)-3-(2,6-diisopropylphenyl)urea]
inhibition in vivo at 1 mg/kg [1]: 35%

CCC(CC)(CNC(=O)Nc1c(C(C)C)cccc1C(C)C)c1cccc2c1OCO2 [Example 11]
IC50 (ACAT): 32 nM
inhibition in vivo at 1 mg/kg [1]: 31%

CCCCCC(CNC(=O)Nc1c(C(C)C)cccc1C(C)C)c1cccc2c1CCCC2 (stereo not shown) [Example 56]
IC50 (ACAT): 4 nM
inhibition in vivo at 1 mg/kg [1]: 42%

CCCC(CCC)(CNC(=O)Nc1c(C(C)C)cccc1C(C)C)c1cccc2c1OCO2 [Example 30]
inhibition in vivo at 1 mg/kg [1]: 18%

CCC(CNC(=O)Nc1c(C(C)C)cccc1C(C)C)c1cccc2c1OCO2 (stereo not shown) [Example 3]
IC50 (ACAT): 85 nM

CCCCC(CNC(=O)Nc1c(C(C)C)cccc1C(C)C)c1ccc2c(c1)OCO2 (stereo not shown) [Example 17]
IC50 (ACAT): 9 nM
inhibition in vivo at 1 mg/kg [1]: 34%

CC(C)c1cccc(C(C)C)c1NC(=O)NCC1(c2cccc3c2OCO3)CCCCC1 [Example 13]
inhibition in vivo at 1 mg/kg [1]: 19%

CCCCCC(CNC(=O)Nc1c(C(C)C)cccc1C(C)C)c1ccc2c(c1)OCO2 (stereo not shown) [Example 18]
inhibition in vivo at 1 mg/kg [1]: 33%

CC(C)CCCC(CNC(=O)Nc1c(C(C)C)cccc1C(C)C)c1cccc2c1CCCC2 (stereo not shown) [Example 57]
inhibition in vivo at 1 mg/kg [1]: 38%

CCCCCCC(CNC(=O)Nc1c(C(C)C)cccc1C(C)C)c1ccc2c(c1)OCCO2 (stereo not shown) [Example 25]
inhibition in vivo at 1 mg/kg [1]: 39%

CC(C)c1cccc(C(C)C)c1NC(=O)NCC1(c2cccc3c2OCO3)CCCC1 [Example 12]
inhibition in vivo at 1 mg/kg [1]: 10%

CCCCCC(CCCCC)(CNC(=O)Nc1c(C(C)C)cccc1C(C)C)c1cccc2c1OCO2 [Example 31]
inhibition in vivo at 1 mg/kg [1]: 16%

CCCC(CNC(=O)Nc1c(C(C)C)cccc1C(C)C)c1cccc2c1OCO2 (stereo not shown) [Example 5]
IC50 (ACAT): 56 nM

CCCCCC(CNC(=O)Nc1c(C(C)C)cccc1C(C)C)c1cccc2c1OCO2 (single isomer, unassigned) [Example 64]
IC50 (ACAT): 12 nM
Reduction of Cholesterol in Blood [1]: 27%

CCCCCC(CNC(=O)Nc1c(C(C)C)cccc1C(C)C)c1cccc2c1OCO2 (stereo not shown) [Example 1, 1-(2-(2,3-methylenedioxyphenyl)heptyl)-3-(2,6-diisopropylphenyl)urea]
inhibition in vivo at 1 mg/kg [1]: 34%

CCCCCC(C)(CNC(=O)Nc1c(C(C)C)cccc1C(C)C)c1cccc2c1OCO2 (stereo not shown) [Example 29]
IC50 (ACAT): 5 nM
inhibition in vivo at 1 mg/kg [1]: 61%

CC(C)c1cccc(C(C)C)c1NC(=O)NCC(c1ccccc1)C(C)(C)C (stereo not shown) [Comparison, 1-(3,3-dimethyl-2-phenylbutyl)-3-(2,6-diisopropylphenyl)urea]
inhibition in vivo at 5 mg/kg [2]: 5%

CCCCCC(CNC(=O)Nc1c(OC)cccc1OC)c1cccc2c1OCO2 (stereo not shown) [Example 48, 1-(2-(2,3-methylenedioxyphenyl)heptyl)-3-(2,6-dimethoxyphenyl)urea]
IC50 (ACAT): 20 nM

CCCCC(CNC(=O)Nc1c(C(C)C)cccc1C(C)C)c1ccc2c(c1)OCO2 (single isomer, unassigned) [Example 62]
Reduction of Cholesterol in Blood [1]: 33%

CCCCCC(CNC(=O)Nc1c(C)cccc1C)c1cccc2c1OCO2 (stereo not shown) [Example 33, 1-(2-(2,3-methylenedioxyphenyl)heptyl)-3-(2,6-dimethylphenyl)urea]
IC50 (ACAT): 38 nM

CCCCC(CNC(=O)Nc1c(C(C)C)cccc1C(C)C)c1cccc2c1CCCC2 (single isomer, unassigned) [Example 65]
IC50 (ACAT): 12 nM
inhibition in vivo at 1 mg/kg [1]: 44%

CCCCCC(CNC(=S)Nc1c(C(C)C)cccc1C(C)C)c1cccc2c1OCO2 (stereo not shown) [Example 54, 1-(2-(2,3-methylenedioxyphenyl)heptyl)-3-(2,6-diisopropylphenyl)thiourea]
inhibition in vivo at 1 mg/kg [1]: 21%

CCCCC(CNC(=O)Nc1c(C(C)C)cccc1C(C)C)c1ccc2c(c1)OCCCO2 (stereo not shown) [Example 26]
inhibition in vivo at 1 mg/kg [1]: 40%

CCCCCC(CNC(=O)Nc1c(CC)cccc1CC)c1cccc2c1OCO2 (stereo not shown) [Example 35]
IC50 (ACAT): 32 nM

CCCCC(CNC(=O)Nc1c(C(C)C)cccc1C(C)C)c1ccc2c(c1)OCCO2 (stereo not shown) [Example 23]
IC50 (ACAT): 13 nM
inhibition in vivo at 1 mg/kg [1]: 39%

CCCCCCC(CNC(=O)Nc1c(C(C)C)cccc1C(C)C)c1cccc2c1OCO2 (stereo not shown) [Example 8]
IC50 (ACAT): 11 nM

CCCCC(CNC(=O)Nc1c(C(C)C)cccc1C(C)C)c1ccc2c(c1)OCO2 (single isomer, unassigned; (+)) [Example 61, (+)-1-(2-(3,4-methylenedioxyphenyl)-hexyl)-3-(2,6-diisopropylphenyl)urea]
inhibition in vivo at 1 mg/kg [1]: 45%

CCCCCC(CNC(=O)Nc1c(CC)cccc1C(C)CC)c1cccc2c1OCO2 (stereo not shown) [Example 36]
IC50 (ACAT): 26 nM

CC(C)c1cccc(C(C)C)c1NC(=O)NCC(c1cccc2c1OCO2)C(C)C (stereo not shown) [Example 4]
IC50 (ACAT): 28 nM

CCCCCCC(CNC(=O)Nc1c(C(C)C)cccc1C(C)C)c1ccc2c(c1)OCO2 (stereo not shown) [Example 19]
inhibition in vivo at 1 mg/kg [1]: 23%

CCCCC(CNC(=O)Nc1c(C(C)C)cccc1C(C)C)c1cc(OC)c2c(c1)OCO2 (stereo not shown) [Example 52, 1-(2-(3,4-methylenedioxy-5-methoxyphenyl)hexyl)-3-(2,6-diisopropylphenyl)urea]
inhibition in vivo at 1 mg/kg [1]: 15%

CCCCC(CNC(=O)Nc1c(C(C)C)cccc1C(C)C)c1cccc2c1CCCC2 (single isomer, unassigned) [Example 66]
IC50 (ACAT): 28 nM
Reduction of Cholesterol in Blood [1]: 40%

CCCC(CNC(=O)Nc1c(C(C)C)cccc1C(C)C)c1ccc2c(c1)OCO2 (stereo not shown) [Example 16]
inhibition in vivo at 1 mg/kg [1]: 34%

CC(C)CCCC(CNC(=O)Nc1c(C(C)C)cccc1C(C)C)c1ccc2c(c1)OCO2 (stereo not shown) [Example 20]
inhibition in vivo at 1 mg/kg [1]: 46%

CCCCCC(CNC(=O)Nc1c(C(C)C)cccc1C(C)C)c1ccc2c(c1)OCCO2 (stereo not shown) [Example 24]
inhibition in vivo at 1 mg/kg [1]: 41%

CCCCCC(CNC(=O)Nc1c(Cl)cccc1Cl)c1cccc2c1OCO2 (stereo not shown) [Example 34, 1-(2-(2,3-methylenedioxyphenyl)heptyl)-3-(2,6-dichlorophenyl)urea]
IC50 (ACAT): 34 nM

CCCCC(CNC(=O)Nc1c(C(C)C)cccc1C(C)C)c1cccc2c1OCCO2 (stereo not shown) [Example 14]
inhibition in vivo at 1 mg/kg [1]: 30%

CCCCCC(CNC(=O)Nc1c(C(C)C)cccc1C(C)C)c1cccc2c1OCO2 (single isomer, unassigned) [Example 63]
IC50 (ACAT): 5 nM
Reduction of Cholesterol in Blood [1]: 56%

CCCCCCCC(CNC(=O)Nc1c(C(C)C)cccc1C(C)C)c1cccc2c1OCO2 (stereo not shown) [Example 9]
IC50 (ACAT): 86 nM

CCCCC(CNC(=O)Nc1c(C(C)C)cccc1C(C)C)c1cccc2c1OCO2 (stereo not shown) [Example 6]
inhibition in vivo at 1 mg/kg [1]: 40%
